In patent publication US20130331427A1, “METHODS OF STIMULATING CELLULAR GROWTH, SYNAPTIC, REMODELING AND CONSOLIDATION OF LONG-TERM MEMORY” (Blanchette Rockefeller Neuroscience Institute, priority 2007, published 2013):
Entries after “also recorded” stand apart in the source; their conditions may differ.

Tests used:
sAPP secretion = sAPP secretion with bryostatin-1; format: cell-based; conditions: 0.1 nM
From the text: Of particular interest are macrocyclic lactones (i.e. bryostatin class and neristatin class) that act to stimulate PKC. […] Bryostatin is currently in clinical trials as an anti-cancer agent. The bryostatins are known to bind to the regulatory domain of PKC and to activate the enzyme. […] (See, for example, WO 97/43268; incorporated herein by reference in its entirety).

calexcitin = calexcitin immunostaining in Hermissenda B-photoreceptors; format: in vivo
Protocol: Following experimental treatments and testing, animals were rapidly decapitated, the central nervous systems (CNS) removed and then fixed in 4% para-formaldehyde in 20 mM Tris-buffered (pH 8) natural seawater (NSW; 0.2 μm micropore-filtered). The CNSs were then embedded in polyester wax (20), sectioned (6 μm) and immunostained using a biotinylated secondary antibody coupled to avidin-bound microperoxidase (ABC method, Vector), Aminoethylcarbazole (AEC) was used as the chromogen. The primary polyclonal antibody (designated 25U2) was raised in rabbits from the full length calexcitin protein extracted from squid optic lobes. Gray-scale intensity measures were done from digital photomicrographs on circumscribed cytoplasmic areas of the B-photoreceptors minus the same background area (non-staining neuropile).
Micrographs (A, B) depict representative tissue sections from Hermissenda eyes that were immunolabeled with the calexcitin polyclonal antibody, 25U2. […] Differences in staining intensities were measured and recorded as gray-scale intensities (0-256; B-cell cytoplasm minus tissue background).

PKC [1] = experiment: PKC activity (histone phosphorylation) in Hermissenda nervous systems; format: in vivo
Protocol: Cells were homogenized by sonication (5 sec, 25 W) in 100 μl of 100 mM Tris-HCL pH 7.4 buffer containing 1 mM EGTA, 1 mM PMSF, and 50 mM NaF. Homogenate was transferred to a polyallomer centrifuge tube and was centrifuged at 100,000×g for 10 min at 4°. The supernatant was removed and immediately frozen on dry ice. The particulate fraction was resuspended by sonication in 100 μl of the same buffer and stored at −80°. To measure PKC, 10 μl of cytosol or particulate fraction was incubated for 15 min at 37° in the presence of 10 μM histones, 4.89 mM CaCl2, 1.2 μg/μl phosphatidyl-L-serine, 0.18 μg/μl 1.2-dioctanoyl-sn-glycerol, 10 mM MgCl2, 20 mM HEPES (pH 7.4), 0-8 mM EDTA, 4 mM EGTA, 4% glycerol, 8 μg/ml aprotinin, 8 μg/ml leupeptin, and 2 mM benzamidine. 0.5 μCi [γ^32-P]ATP was added and ^32P-phosphoprotein formation was measured by adsorption onto phosphocellulose as described previously (25). This assay was used with slight adjustments for either Hermissenda nervous system homogenates or cultured mammalian neuron homogenates.
Histone phosphorylation (See “Methods”) in isolated circumesophageal nervous systems was then measured in the cytosol fraction. […] (FIG. 12, 13).

rats = experiment: rat spatial (water) maze learning and memory; format: in vivo
dendritic spines = dendritic spines of rats trained in a spatial maze task; format: in vivo, rat
From the text: On retention day 2, confocal microscopy and […] were used to study filopodia and dendritic spines: mushroom, thin and stubby spines (Panel A).

presynaptic markers = experiment: pre- and postsynaptic markers, quantitative confocal immunohistochemistry; format: in vivo, rat; conditions: bryostatin alone
From the text: Water maze training increased the numbers of the dendritic spine marker spinophilin (FIG. 29; Panel B), postsynaptic membrane marker neurogranin (FIG. 29; Panels A and D), and presynaptic marker GAP-43 (Panels A and E), but not the axon bouton marker synaptophysin (FIG. 29; Panels A and B), as determined by quantitative confocal immunohistochemistry.

PKCα = target: T1, PKCα (Rattus norvegicus, UniProt P05696); format: cell-based
T1 construct: from tissue; host or cells: acute hippocampal slices

PKCδ = target: T2, PKCδ (Rattus norvegicus, UniProt P09215); experiment: acute hippocampal slices, PKCδ activation; format: cell-based
T2 construct: from tissue; host or cells: hippocampal slices
T2 sequence (P09215 whole entry): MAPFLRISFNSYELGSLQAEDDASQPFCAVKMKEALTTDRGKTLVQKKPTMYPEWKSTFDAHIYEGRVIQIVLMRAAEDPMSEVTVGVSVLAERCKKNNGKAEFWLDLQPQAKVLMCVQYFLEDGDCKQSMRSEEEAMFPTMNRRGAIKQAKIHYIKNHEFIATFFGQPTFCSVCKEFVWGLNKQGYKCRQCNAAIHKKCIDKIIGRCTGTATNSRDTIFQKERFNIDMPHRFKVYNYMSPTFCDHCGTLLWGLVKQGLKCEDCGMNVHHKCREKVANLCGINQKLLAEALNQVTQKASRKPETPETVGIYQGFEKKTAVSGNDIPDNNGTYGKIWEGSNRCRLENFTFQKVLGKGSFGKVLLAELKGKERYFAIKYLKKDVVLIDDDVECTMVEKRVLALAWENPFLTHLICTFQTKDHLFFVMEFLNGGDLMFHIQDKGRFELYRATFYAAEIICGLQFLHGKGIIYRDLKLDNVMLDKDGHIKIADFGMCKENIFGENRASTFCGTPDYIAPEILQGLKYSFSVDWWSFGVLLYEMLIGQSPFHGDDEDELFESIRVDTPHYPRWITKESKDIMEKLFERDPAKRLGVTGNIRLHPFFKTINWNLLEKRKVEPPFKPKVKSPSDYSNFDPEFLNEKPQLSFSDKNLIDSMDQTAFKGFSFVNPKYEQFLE

ELAV = experiment: acute hippocampal slices, nuclear export of ELAV; format: cell-based; conditions: 120-min incubation
CA1 neurons = experiment: acute hippocampal slices, number of dendritic spines (spinophilin); format: cell-based; conditions: 0.1 nM, spine marker spinophilin
[2] = cited from earlier work
PKC [3] = conditions: cited from earlier work
Rat IGF-IR cells = experiment: overall protein synthesis, [35S]methionine incorporation; conditions: single 30-minute exposure to 0.28 nM
Protocol: [^35S]Methionine (9.1 μCi) was then added to the medium followed by analysis of radiolabel.

Structure (SMILES): CCC/C=C/C=C/C(=O)O[C@H]1/C(=C/C(=O)OC)C[C@H]2C[C@H]([C@@H](C)O)OC(=O)C[C@H](O)C[C@@H]3C[C@H](OC(C)=O)C(C)(C)[C@](O)(C[C@@H]4C/C(=C/C(=O)OC)C[C@H](/C=C/C(C)(C)[C@]1(O)O2)O4)O3 [bryostatin, bryostatin-1]
- sAPP secretion (sAPP secretion): dramatic increase of sAPP secretion
- CE immunostaining (calexcitin; bryostatin alone, 24 hours after 1 exposure for four hours): not elevated
- CE immunostaining (calexcitin; bryostatin alone, 24 hours after 2 exposures on two successive days): greater residual CE immunostaining
- CE immunostaining (calexcitin; bryostatin plus 6 TE): comparable to that observed after 9 TE
- increase of calexcitin levels (calexcitin; paired training (6PTE), bryostatin 0.25): greater than 4.3 ×
- rise in CE (calexcitin) (calexcitin; random training (4RTE), bryostatin 0.25): 2.0
- calexcitin level (calexcitin; two exposures on successive days 0.25 ng/ml, 2-paired TEs, vs 9-random TEs): significantly increased
- PKC activity, cytosol fraction (PKC [1]; 0.28 nM, 4 hour exposures, 10 minutes and 24 hours after the second of two exposures): significantly increased over baseline levels
- PKC activity, membrane fraction (PKC [1]; 24 hours after the second of two exposures): significantly increased over baseline
- latency to reach the platform (rats; 10 μg/kg i.p. 20 min before training on day 1, 3, 5, vs. controls): greatly reduced
- number of target crossings (rats; retention Day 1): similarly enhanced
- time to reach the target quadrant (rats; retention day 1, 24 hours after all training): reduced
- filopodia or thin spines (dendritic spines; all conditions): no changes
- number of stubby spines (dendritic spines; bryostatin alone (without training)): augmented
- total numbers of filopodia and (all shape) spines (dendritic spines; only bryostatin): similarly increased
- water-maze-induced increase in number of mushroom spines (dendritic spines; retention day 2, training plus bryostatin): enhanced
- increase in total numbers of filopodia and spines (dendritic spines; water maze rats also treated with bryostatin): enhanced
- number of presynaptic markers (presynaptic markers): increased
- activation of PKCα (PKCα): stimulates translocation to the plasma membrane; also recorded: selectively activated
- activation of PKCδ (PKCδ): but not PKCδ
- ELAV transport (ELAV): significantly transported to dendrites
- number of dendritic spines (CA1 neurons): augmented
- number of dendritic spines (CA1 neurons; listed as Bryostatin): increased
- tolerability ([2]; 20 μg/m^2 once per week for 3 weeks): well tolerated
- maximum-tolerated dose ([2]; 1 hour i.v. infusion once every 2 weeks for 6 weeks): 50 μg/m^2
- maximum tolerated dose ([2]; once per week for 8 weeks): 25 μg/m^2
- myalgia reported, share of all treated patients ([2]; phase II clinical trials): 10 to 87%
- concentrations that activate PKC (PKC [3]): sub-nanomolar
- increase of overall protein synthesis (Rat IGF-IR cells; by 79 hours): 60%
- increase of overall protein synthesis (Rat IGF-IR cells; within 24 h): 20%
